# According to patent US20260285850A1, “SUBSTITUTED OXAZOLIDINONES AND IMIDAZOLINONES AS HERBICIDES” (FMC CORPORATION, priority 2023, published 2026):
# Assays:
# Type in all cases: in vivo
# rice (Oryza sativa) = assay: Test B flooded paddy test, visual plant response rating 0-100; conditions: 250 g ai/ha, Flood, applied to paddy water, evaluated after 13 days
# How it was run: (§1)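 2-leaf plants; flood 3 cm over soil; compound dosed into paddy water; depth kept constant; greenhouse 13 d; visual scoring vs controls. Dash = no result.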
# [1] = test system: ducksalad (Heteranthera limosa); assay: as above; conditions: 250 g ai/ha, Flood, applied to paddy water, evaluated after 13 days
# How it was run: as §1
# [2] = test system: sedge, umbrella (small-flower umbrella sedge, Cyperus difformis); assay: as above; conditions: 250 g ai/ha, Flood, applied to paddy water, evaluated after 13 days
# How it was run: as §1
# [3] = test system: barnyardgrass (Echinochloa crusgalli); assay: as above; conditions: 250 g ai/ha, Flood, applied to paddy water, evaluated after 13 days
# How it was run: as §1
# [4] = test system: wheat (Triticum aestivum); assay: Test A preemergence soil spray, visual injury rating 0-100; conditions: 10 days
# How it was run: (§2)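 Preemergence directed soil spray or postemergence spray (2-10 cm, 1-2 leaf); loam/sand mix; compound in non-phytotoxic solvent + surfactant. Greenhouse, 10 d. Visual injury vs untreated, 0 = none, 100 = complete control.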
# corn (Zea mays) [5] = assay: as above; conditions: 10 days
# How it was run: as §2
# [6] = test system: palmer (palmer amaranth, palmer pigweed, Amaranthus palmeri); assay: as above; conditions: 10 days
# How it was run: as §2
# [7] = test system: oat, wild (wild oat, Avena fatua); assay: as above; conditions: 10 days
# How it was run: as §2
# soybean (Glycine max) [8] = assay: as above; conditions: 10 days
# How it was run: as §2
# [9] = test system: ragweed (common ragweed, Ambrosia artemisiifolia); assay: as above; conditions: 10 days
# How it was run: as §2
# [10] = test system: barnyardgrass (Echinochloa crus-galli); assay: as above; conditions: 10 days
# How it was run: as §2
# [11] = test system: green foxtail (Setaria viridis); assay: as above; conditions: 10 days
# How it was run: as §2
# [12] = test system: blackgrass (Alopecurus myosuroides); assay: as above; conditions: 10 days
# How it was run: as §2
# [13] = test system: ryegrass, Italian (italian ryegrass, Lolium multiflorum); assay: as above; conditions: 10 days
# How it was run: as §2
# kochia (Bassia scoparia) [14] = assay: as above; conditions: 10 days
# How it was run: as §2
# [15] = test system: wheat (Triticum aestivum); assay: Test A postemergence application, visual injury rating 0-100
# How it was run: as §2
# corn (Zea mays) [16] = assay: as above
# How it was run: as §2
# [17] = test system: palmer (palmer amaranth, palmer pigweed, Amaranthus palmeri); assay: as above
# How it was run: as §2
# [18] = test system: oat, wild (wild oat, Avena fatua); assay: as above
# How it was run: as §2
# soybean (Glycine max) [19] = assay: as above
# How it was run: as §2
# [20] = test system: ragweed (common ragweed, Ambrosia artemisiifolia); assay: as above
# How it was run: as §2
# [21] = test system: barnyardgrass (Echinochloa crus-galli); assay: as above
# How it was run: as §2
# [22] = test system: green foxtail (Setaria viridis); assay: as above
# How it was run: as §2
# [23] = test system: blackgrass (Alopecurus myosuroides); assay: as above
# How it was run: as §2
# [24] = test system: galium (catchweed bedstraw, Galium aparine); assay: as above
# How it was run: as §2
# [25] = test system: horseweed (Erigeron canadensis); assay: as above
# How it was run: as §2
# [26] = test system: ryegrass, Italian (italian ryegrass, Lolium multiflorum); assay: as above
# How it was run: as §2
# kochia (Bassia scoparia) [27] = assay: as above
# How it was run: as §2
# [28] = 62 g ai/ha, 0 = no effect, 100 = complete control
# [29] = 62 g ai/ha, postemergence, 10 days, 0 = no effect, 100 = complete control
# [30] = Postemergence, 16 g ai/ha, greenhouse 10 days, 0 no effect, 100 complete control
structure (smiles),measurement,setting,value
COC(=O)C1CC(NC(=O)C2(C)CN(c3cc(F)cc(F)c3)C(=O)O2)C1 (stereo not shown) [Compound 130],"Plant response rating, Rice (0 to 100 scale, 0 is no effect and 100 is complete control)",rice (Oryza sativa),60
same,"Plant response rating, Ducksalad (0 to 100 scale, 0 is no effect and 100 is complete control)",[1],100
same,"Plant response rating, Sedge, Umbrella (0 to 100 scale, 0 is no effect and 100 is complete control)",[2],90
same,"Plant response rating, Barnyardgrass (0 to 100 scale, 0 is no effect and 100 is complete control)",[3],80
same,Wheat plant response rating,"[4]; 16 g ai/ha, 0 to 100 scale",90
same,Wheat plant response rating (0-100),[4]; [28],90
same,Corn plant response rating,"corn (Zea mays) [5]; 16 g ai/ha, 0 to 100 scale",10
same,Corn plant response rating (0-100),corn (Zea mays) [5]; [28],90
same,"Pigweed, Palmer plant response rating","[6]; 16 g ai/ha, 0 to 100 scale",10
same,"Pigweed, Palmer plant response rating (0-100)",[6]; [28],30
same,"Oat, Wild plant response rating","[7]; 16 g ai/ha, 0 to 100 scale",50
same,"Oat, Wild plant response rating (0-100)",[7]; [28],90
same,Soybean plant response rating,"soybean (Glycine max) [8]; 16 g ai/ha, 0 to 100 scale",0
same,Soybean plant response rating (0-100),soybean (Glycine max) [8]; [28],40
same,Ragweed plant response rating,"[9]; 16 g ai/ha, 0 to 100 scale",0
same,Ragweed plant response rating (0-100),[9]; [28],0
same,Barnyardgrass plant response rating,"[10]; 16 g ai/ha, 0 to 100 scale",0
same,Barnyardgrass plant response rating (0-100),[10]; [28],70
same,"Foxtail, Green plant response rating","[11]; 16 g ai/ha, 0 to 100 scale",50
same,"Foxtail, Green plant response rating (0-100)",[11]; [28],90
same,Blackgrass plant response rating,"[12]; 16 g ai/ha, 0 to 100 scale",70
same,Blackgrass plant response rating (0-100),[12]; [28],90
same,"Ryegrass, Italian plant response rating","[13]; 16 g ai/ha, 0 to 100 scale",40
same,"Ryegrass, Italian plant response rating (0-100)",[13]; [28],90
same,Kochia plant response rating,"kochia (Bassia scoparia) [14]; 16 g ai/ha, 0 to 100 scale",0
same,Kochia plant response rating (0-100),kochia (Bassia scoparia) [14]; [28],90
same,Wheat plant response rating (0-100),[15]; [29],90
same,Wheat plant response rating (0 to 100 scale),[15]; [30],90
same,Corn plant response rating (0-100),corn (Zea mays) [16]; [29],100
same,Corn plant response rating (0 to 100 scale),corn (Zea mays) [16]; [30],100
same,"Pigweed, Palmer plant response rating (0-100)",[17]; [29],90
same,"Pigweed, Palmer plant response rating (0 to 100 scale)",[17]; [30],80
same,"Oat, Wild plant response rating (0-100)",[18]; [29],90
same,"Oat, Wild plant response rating (0 to 100 scale)",[18]; [30],90
same,Soybean plant response rating (0-100),soybean (Glycine max) [19]; [29],70
same,Soybean plant response rating (0 to 100 scale),soybean (Glycine max) [19]; [30],60
same,Ragweed plant response rating (0-100),[20]; [29],30
same,Ragweed plant response rating (0 to 100 scale),[20]; [30],20
same,Barnyardgrass plant response rating (0-100),[21]; [29],80
same,Barnyardgrass plant response rating (0 to 100 scale),[21]; [30],70
same,"Foxtail, Green plant response rating (0-100)",[22]; [29],90
same,"Foxtail, Green plant response rating (0 to 100 scale)",[22]; [30],90
same,Blackgrass plant response rating (0-100),[23]; [29],90
same,Blackgrass plant response rating (0 to 100 scale),[23]; [30],90
same,Galium plant response rating (0-100),[24]; [29],90
same,Galium plant response rating (0 to 100 scale),[24]; [30],70
same,Horseweed plant response rating (0-100),[25]; [29],30
same,Horseweed plant response rating (0 to 100 scale),[25]; [30],10
same,"Ryegrass, Italian plant response rating (0-100)",[26]; [29],90
same,"Ryegrass, Italian plant response rating (0 to 100 scale)",[26]; [30],70
same,Kochia plant response rating (0-100),kochia (Bassia scoparia) [27]; [29],90
same,Kochia plant response rating (0 to 100 scale),kochia (Bassia scoparia) [27]; [30],80
